Laboratory results published in US20160031925A1, “AZITHROMYCIN ANTIMICROBIAL DERIVATIVES WITH NON-ANTIBIOTIC PHARMACEUTICAL EFFECT” (priority 2013, published 2016).
Like-named read-outs stand apart in the source and are kept apart here.

Assays:
[1] = tested on: Escherichia coli ATCC 8739; assay: Antimicrobial disk susceptibility test (CLSI M2-A9), E. coli; type: cell-based
Method: (§1) Test for the antimicrobial activity of the novel compounds may be performed according to the standards of Clinical and Laboratory Standards Institute, Performance Standards for Antimicrobial Disk Susceptibility Tests; approved Standard; M2-A), vol. 26 NO. 1 9th ed.
as §1, with “A test for” for “Test for”, “compounds were” for “compounds may be”, “ed. The samples were dissolved in 10 ml of sterile Milli-Q water by magnetic stirring overnight at 20° C.” for “ed.”
(§2) Two doses of the samples were tested in duplicate, a) and b). The size of the inhibition zones were measured in mm after incubation.

[2] = tested on: Pseudomonas aeruginosa ATCC 9027; assay: Antimicrobial disk susceptibility test (CLSI M2-A9), P. aeruginosa; type: cell-based
Method: as §1
as §1, with “A test for” for “Test for”, “compounds were” for “compounds may be”, “ed. The samples were dissolved in 10 ml of sterile Milli-Q water by magnetic stirring overnight at 20° C.” for “ed.”
as §2

[3] = tested on: Staphylococcus aureus ATTC 6538; assay: Antimicrobial disk susceptibility test (CLSI M2-A9), S. aureus; type: cell-based
Method: as §1
as §1, with “A test for” for “Test for”, “compounds were” for “compounds may be”, “ed. The samples were dissolved in 10 ml of sterile Milli-Q water by magnetic stirring overnight at 20° C.” for “ed.”
as §2

[4] = tested on: Klebsiella pneumonia ATCC 35657; assay: Antimicrobial disk susceptibility test (CLSI M2-A9), K. pneumonia; type: cell-based
Method: as §1
as §1, with “A test for” for “Test for”, “compounds were” for “compounds may be”, “ed. The samples were dissolved in 10 ml of sterile Milli-Q water by magnetic stirring overnight at 20° C.” for “ed.”
as §2

[5] = tested on: human airway epithelia; conditions: reference 6; cited from earlier work
[6] = Escherichia coli, ATCC8739; 5 μg/disk, duplicate a); read-out: size of the inhibition zone, E. coli a)
[7] = Escherichia coli, ATCC8739; 5 μg/disk, duplicate b); read-out: size of the inhibition zone, E. coli b)
[8] = Escherichia coli, ATCC8739; 10 μg/disk, duplicate a); read-out: size of the inhibition zone, E. coli a)
[9] = Escherichia coli, ATCC8739; 10 μg/disk, duplicate b); read-out: size of the inhibition zone, E. coli b)
[10] = Pseudomonas aeruginosa, ATCC9027; 5 μg/disk, duplicate a); read-out: size of the inhibition zone, P. aeruginosa a)
[11] = Pseudomonas aeruginosa, ATCC9027; 5 μg/disk, duplicate b); read-out: size of the inhibition zone, P. aeruginosa b)
[12] = Pseudomonas aeruginosa, ATCC9027; 10 μg/disk, duplicate a); read-out: size of the inhibition zone, P. aeruginosa a)
[13] = Pseudomonas aeruginosa, ATCC9027; 10 μg/disk, duplicate b); read-out: size of the inhibition zone, P. aeruginosa b)
[14] = Staphylococcus aureus, ATTC6538; 5 μg/disk, duplicate a); read-out: size of the inhibition zone, S. aureus a)
[15] = Staphylococcus aureus, ATTC6538; 5 μg/disk, duplicate b); read-out: size of the inhibition zone, S. aureus b)
[16] = Staphylococcus aureus, ATTC6538; 10 μg/disk, duplicate a); read-out: size of the inhibition zone, S. aureus a)
[17] = Staphylococcus aureus, ATTC6538; 10 μg/disk, duplicate b); read-out: size of the inhibition zone, S. aureus b)
[18] = Klebsiella pneumoniae, ATCC35657; 5 μg/disk, duplicate a); read-out: size of the inhibition zone, K. pneumonia a)
[19] = Klebsiella pneumoniae, ATCC35657; 5 μg/disk, duplicate b); read-out: size of the inhibition zone, K. pneumonia b)
[20] = Klebsiella pneumoniae, ATCC35657; 10 μg/disk, duplicate a); read-out: size of the inhibition zone, K. pneumonia a)
[21] = Klebsiella pneumoniae, ATCC35657; 10 μg/disk, duplicate b); read-out: size of the inhibition zone, K. pneumonia b)

Compound	size of the inhibition zone, E. coli a) ([1]; 5 μg/disk, duplicate a)) [mm]	size of the inhibition zone, E. coli b) ([1]; 5 μg/disk, duplicate b)) [mm]	size of the inhibition zone, E. coli a) ([1]; 10 μg/disk, duplicate a)) [mm]	size of the inhibition zone, E. coli b) ([1]; 10 μg/disk, duplicate b)) [mm]	size of the inhibition zone, P. aeruginosa a) ([2]; 5 μg/disk, duplicate a)) [mm]	size of the inhibition zone, P. aeruginosa b) ([2]; 5 μg/disk, duplicate b)) [mm]	size of the inhibition zone, P. aeruginosa a) ([2]; 10 μg/disk, duplicate a)) [mm]	size of the inhibition zone, P. aeruginosa b) ([2]; 10 μg/disk, duplicate b)) [mm]	size of the inhibition zone, S. aureus a) ([3]; 5 μg/disk, duplicate a)) [mm]	size of the inhibition zone, S. aureus b) ([3]; 5 μg/disk, duplicate b)) [mm]	size of the inhibition zone, S. aureus a) ([3]; 10 μg/disk, duplicate a)) [mm]	size of the inhibition zone, S. aureus b) ([3]; 10 μg/disk, duplicate b)) [mm]	size of the inhibition zone, K. pneumonia a) ([4]; 5 μg/disk, duplicate a)) [mm]	size of the inhibition zone, K. pneumonia b) ([4]; 5 μg/disk, duplicate b)) [mm]	size of the inhibition zone, K. pneumonia a) ([4]; 10 μg/disk, duplicate a)) [mm]	size of the inhibition zone, K. pneumonia b) ([4]; 10 μg/disk, duplicate b)) [mm]	zone of inhibition at 5 µg/disc [1, 6] [mm]	zone of inhibition at 5 µg/disc [1, 7] [mm]	zone of inhibition at 10 µg/disc [1, 8] [mm]	zone of inhibition at 10 µg/disc [1, 9] [mm]	other results
CCC1OC(=O)C(C)C(OC2CC(C)(OC)CC(C)O2)C(C)C(OC2OC(C)CC(N(C)C)C2C)C(C)(O)CC(C)CN(C)C(C)C(O)C1(C)O (stereo not drawn) [PP007]	<1	<1	<1	<1	<1	<1	<1	<1	<1	<1	<1	<1	<1	<1	<1	<1					
CC[C@H]1OC(=O)[C@H](C)C(O[C@H]2C[C@@](C)(OC)[C@@H](O)[C@H](C)O2)[C@H](C)[C@@H](OC2C[C@@H](N(C)C)C[C@@H](C)O2)[C@](C)(O)C[C@@H](C)CN(C)[C@H](C)[C@@H](O)[C@]1(C)O (stereo partly drawn) [PP005]																	< 1	< 1	< 1	< 1	zone of inhibition at 5 µg/disc [2, 10]: < 1 mm; zone of inhibition at 5 µg/disc [2, 11]: < 1 mm; zone of inhibition at 10 µg/disc [2, 12]: < 1 mm; zone of inhibition at 10 µg/disc [2, 13]: < 1 mm; zone of inhibition at 5 µg/disc [3, 14]: < 1 mm; zone of inhibition at 5 µg/disc [3, 15]: < 1 mm; zone of inhibition at 10 µg/disc [3, 16]: < 1 mm; zone of inhibition at 10 µg/disc [3, 17]: < 1 mm; zone of inhibition at 5 µg/disc [4, 18]: < 1 mm; zone of inhibition at 5 µg/disc [4, 19]: < 1 mm; zone of inhibition at 10 µg/disc [4, 20]: < 1 mm; zone of inhibition at 10 µg/disc [4, 21]: < 1 mm
penicillin																					effect on transepithelial electrical resistance / processing of tight junction proteins [5]: not observed
CC[C@H]1OC(=O)[C@H](C)[C@@H](O[C@H]2C[C@@](C)(OC)[C@@H](O)[C@H](C)O2)[C@H](C)[C@@H](O[C@@H]2O[C@H](C)C[C@H](N(C)C)[C@H]2O)[C@](C)(O)C[C@@H](C)CN(C)[C@H](C)[C@@H](O)[C@]1(C)O [azithromycin]																					effect on transepithelial electrical resistance / processing of tight junction proteins [5]: may increase the transepithelial electrical resistance
CCC1OC(=O)C(C)C(OC2CC(C)(OC)C(C)C(C)O2)C(C)C(OC2CC(N(C)C)CC(C)O2)C(C)(O)CC(C)CN(C)C(C)C(O)C1(C)O (stereo not drawn) [PP008]	<1	<1	<1	<1	<1	<1	<1	<1	<1	<1	<1	<1	<1	<1	<1	<1					
CC[C@H]1OC(=O)[C@H](C)C(O[C@H]2C[C@@](C)(OC)C[C@H](C)O2)[C@H](C)[C@@H](OC2O[C@H](C)C[C@H](N(C)C)[C@H]2O)[C@](C)(O)C[C@@H](C)CN(C)[C@H](C)[C@@H](O)[C@]1(C)O (stereo partly drawn) [PP004]																	< 1	< 1	< 1	< 1	zone of inhibition at 5 µg/disc [2, 10]: < 1 mm; zone of inhibition at 5 µg/disc [2, 11]: < 1 mm; zone of inhibition at 10 µg/disc [2, 12]: < 1 mm; zone of inhibition at 10 µg/disc [2, 13]: < 1 mm; zone of inhibition at 5 µg/disc [3, 14]: < 1 mm; zone of inhibition at 5 µg/disc [3, 15]: < 1 mm; zone of inhibition at 10 µg/disc [3, 16]: < 1 mm; zone of inhibition at 10 µg/disc [3, 17]: < 1 mm; zone of inhibition at 5 µg/disc [4, 18]: < 1 mm; zone of inhibition at 5 µg/disc [4, 19]: < 1 mm; zone of inhibition at 10 µg/disc [4, 20]: < 1 mm; zone of inhibition at 10 µg/disc [4, 21]: < 1 mm
